pKd: −log10 of the molar value.
Legend:
HTTexon1-Q72-MBP = target: T1, HTTexon1-Q72-MBP (Homo sapiens, UniProt P42858, INS38QQQQQQQQQQQQQQQQQQQQQQQQQQQQQQQQQQQQQQQQQQQQQQQQQQQ); assay: OI-RD affinity screening and affinity reaction parameters with HTTexon1-Q72; type: binding
T1 construct: made in house; host or cells: mammalian expression vector pTT5SH8Q2
Method: Each compound was printed in duplicate on the microarray. The compound not fixed on the surface of the chip was washed away. The chip was sealed and cleaned. 01-RD microscope was applied to scan the images. […] The chips are cleaned and scanned.
(§1) The difference images of the above steps (1), (2), (3) (the image after incubation minus the image before incubation) was analyzed respectively.
(§2) Each compound was printed in triplicates on the microarray. 01-RD was used to measure the affinity reaction parameters of compounds with HTTexon1-Q72 and HTTexon1-Q25.

HTTexon1-Q25-MBP = target: T2, HTTexon1-Q25-MBP (Homo sapiens, UniProt P42858, DUP35-38); assay: OI-RD affinity with HTTexon1-Q25; type: binding
T2 construct: made in house; host or cells: mammalian expression vector pTT5SH8Q2
Method: OI-RD images before and after incubation with the target protein was obtained following the method in (1).
as §1, §2

LC3B [1] = target: T3, LC3B (Homo sapiens, UniProt Q9GZQ8); assay: OI-RD affinity with LC3B; type: binding
T3 construct: His8 (N, cleaved yes); GST (from pGEX-6P1) (N, cleaved yes); made in house; host or cells: E. coli BL21(DE3)pLsyS
Method: 01-RD images before and after incubation with the target protein was obtained following the method in (1).
as §1
(§3) Each compound was printed in triplicates on the microarray. 01-RD was used to measure the affinity reaction parameters of the compound with LC3B, full-length mHTT (flHTT-Q73) and full-length HTT-Q23 (flHTT-Q23).

[2] = target: T4, full-length mHTT (flHTT-Q73) (Homo sapiens, UniProt P42858, INS38QQQQQQQQQQQQQQQQQQQQQQQQQQQQQQQQQQQQQQQQQQQQQQQQQQQQ); assay: OI-RD affinity reaction parameters with flHTT-Q73; type: binding
T4 construct: LC3B, full-length mHTT (flHTT-Q73) and full-length HTT-Q23 (flHTT-Q23); protein A (N, cleaved yes); made in house; host or cells: human embryonic kidney E293 cells
Source text: as §3

flHTT-Q73 = target: T5, flHTT-Q73 (Homo sapiens, UniProt P42858, INS38QQQQQQQQQQQQQQQQQQQQQQQQQQQQQQQQQQQQQQQQQQQQQQQQQQQQ); assay: MST affinity with flHTT-Q73; type: binding
T5 construct: LC3B, full-length mHTT (flHTT-Q73) and full-length HTT-Q23 (flHTT-Q23); protein A (N, cleaved yes); made in house; host or cells: human embryonic kidney E293 cells

LC3B [3] = target: T3, LC3B; assay: MST affinity with LC3B; type: binding
mHTT [4] = assay: Western-blot mHTT level in primary cultured cortical neurons; type: cell-based, mouse; details: 2 days
Method: (§4) Primary cultured cortical neurons: The brains of Hdh^Q140/Q7 and Hdh^Q7/Q7 newborn mice (P0) were dissected, digested, dissociated, and cultured.
(§5) (1) The primary cultured Hdh^Q140/Q7 and Hdh^Q7/Q7 mouse cortical neuron cells were treated with the compound for 2 days.

wtHTT = target: T6, wtHTT (Mus musculus, UniProt P42859); assay: Western-blot wtHTT level in primary cultured cortical neurons; type: cell-based; details: Hdh^Q7/Q7 cortical neurons, 2 days
T6 construct: endogenous in cells; host or cells: primary cortical neurons of newborn Hdh Q140/Q7 and Hdh Q7/Q7 mice
Method: as §4, §5

mHTT [5] = target: T7, mHTT (Homo sapiens, UniProt P42858, INS38QQQQQQQQQQQQQQQQQQQQQQQQQQ); assay: HTRF mHTT level in HD patient iPSC-derived neurons; type: cell-based; details: iPSC-derived neurons (Q47)
T7 construct: endogenous in cells; host or cells: HD patient iPSC-derived neurons (Q47)

[6] = target: T8, mutant ATXN3 protein (ATXN3-Q74) (Homo sapiens, UniProt P54252, G306R/INS305QQQQQQQQQQQQQQQQQQQQQQQQQQQQQQQQQQQQQQQQQQQQQQQQQQQQQQQQQQQQQQQQ/V212M); assay: Western-blot mutant ATXN3 level in SCA3 patient fibroblasts; type: cell-based; details: 100 nM (compound 4: 50 nM), 2 days
T8 construct: endogenous in cells; host or cells: SCA3 patient fibroblasts (Q74)
Method: (§6) Then the levels of mutant ATXN3 protein (ATXN3-Q74, SEQ ID NO: 2) and wild-type ATXN3 protein (ATXN3-Q27, SEQ ID NO: 7) were determined by Western-blots (FIG. 26). […] Therefore, the compound of the present invention can be used to treat SCA3.

[7] = target: T9, wild-type ATXN3 protein (ATXN3-Q27) (Homo sapiens, UniProt P54252, G306R/INS305QQQQQQQQQQQQQQQQQ/V212M); assay: Western-blot wild-type ATXN3 level in fibroblasts; type: cell-based; details: 100 nM (compound 4: 50 nM), 2 days
T9 construct: endogenous in cells; host or cells: wild-type fibroblasts (Q27) and/or the normal allele in SCA3 patient fibroblasts
Method: as §6

His-ATXN1-Q92 = target: T10, His-ATXN1-Q92 (Homo sapiens, UniProt P54253, INS208QQQQQQQQQQQQQQQQQQQQQQQQQQQQQQQQQQQQQQQQQQQQQQQQQQQQQQQQQQQQQQQQQQQQQQQQQQQQQQQQ); assay: OI-RD affinity screening with His-ATXN1-Q92; type: binding; details: OI-RD difference images
T10 construct: made in house; host or cells: HEK293T cells (ATCC, CRL-3216)
Method: (1) PolyQ-ATXN1 cDNA (where polyQ is Q92) was synthesized de novo and subcloned into pcDNA vector. It transfected into HEK293T cells (ATCC, CRL-3216) to obtain cells expressing His-ATXN1-Q92 (SEQ ID NO: 3 with a His tag at the N-terminal).
(2) The His-ATXN1-Q92 expressed in (1) was purified to obtain ATXN1 with abnormally expanded polyQ.
To identify compound(s) that can bind to ATXN1 with abnormally expanded polyQ, screening was conducted using a method similar to step (1) of 1.1, except for that the target protein HTTexon1-Q72-MBP in step (1) of 1.1 was replaced with His-ATXN1-Q92.

[8] = target: T11, mutant ATXN1 protein (His-ATXN1-Q92) (Homo sapiens, UniProt P54253, INS208QQQQQQQQQQQQQQQQQQQQQQQQQQQQQQQQQQQQQQQQQQQQQQQQQQQQQQQQQQQQQQQQQQQQQQQQQQQQQQQQ); assay: HTRF mutant ATXN1 level in His-ATXN1-Q92-expressing cells; type: cell-based; details: 100 nM, 2 days, anti-His-Tb/MW1-D2
T11 construct: expressed in transfected cells; host or cells: HEK293T cells (ATCC, CRL-3216)

mHTT [9] = assay: Intracerebroventricular injection, mHTT and wtHTT in cortices of HD mice; type: in vivo, mouse; details: mouse, in vivo
Method: Experimental animals: Hdh^Q140/Q7 mice (3 months old), 4 in each group.
Each test includes three repetitions for each sample, and the mean values was calculated (FIG. 16).

Q25-GFP [10] = assay: OI-RD affinity screening with Q25-GFP; type: binding; details: OI-RD difference images
Source text: (1) PolyQ-GFP cDNA sequence (expressing Met-polyQ-GFP, wherein polyQ was Q72 or Q25) was synthesized de novo and subcloned into pcDNA vector. […] And the same method was used to obtain cells expressing Q53-GFP, cells expressing Q46-GFP, and cells expressing Q38-GFP.

GFP = assay: OI-RD affinity screening with GFP; type: binding; details: OI-RD difference images
Method: (§7) To identify compound(s) that can selectively bind to proteins containing expanded polyglutamine, screening was conducted using a method similar to 1.1, except for that the target protein HTTexon1-Q72-MBP in step (1) of 1.1 was replaced with the polyQ-GFP protein prepared in 10.1, and the target protein HTTexon1-Q25-MBP in step (2) of 1.1 was replaced with GFP.

[11] = system: proteins with expanded polyglutamine (polyQ-GFP); assay: OI-RD affinity screening with polyQ-GFP proteins; type: binding; details: OI-RD difference images
Method: as §7

[12] = system: polyQ-GFP (Q72-GFP, Q25-GFP); assay: polyQ-GFP level in HEK293T cells by Incucyte fluorescence counting; type: cell-based; details: Q72-GFP vs Q25-GFP expressing HEK293T cells, 100 nM compound 1, 100 nM compound 3 or 50 nM compound 4, 2 days
Source text: (1) PolyQ-GFP cDNA sequence (expressing Met-polyQ-GFP, wherein polyQ was Q72 or Q25) was synthesized de novo and subcloned into pcDNA vector. It was transfected into HEK293T cells (ATCC, CRL-3216) through forward transfection to obtain Q72-GFP expressing cells and Q25-GFP expressing cells, respectively. And the same method was used to obtain cells expressing Q53-GFP, cells expressing Q46-GFP, and cells expressing Q38-GFP.
The Q72-GFP expressing cells and Q25-GFP expressing cells obtained in step (1) of 10.1 were used. […] Then the level of polyQ-GFP was measured by Incucyte fluorescence counting (FIG. 25).

MBP-ATXN3-Q28 [13] = target: T12, MBP-ATXN3-Q28 (Homo sapiens, UniProt P54252, INS305QQQQQQQQQQQQQQQQQQ); assay: OI-RD affinity screening with MBP-ATXN3-Q28; type: binding; details: OI-RD difference images
T12 construct: His8 with TEV protease cleavage site; made in house; host or cells: Escherichia coli Rosetta(DE3)pLsyS
Method: (§8) Screening was conducted using a method similar to 1.1, except for that the target protein HTTexon1-Q72-MBP in step (1) of 1.1 was replaced with MBP-ATXN3-Q68 and the target protein HTTexon1-Q25-MBP in step (2) of 1.1 was replaced with MBP-ATXN3-Q28, to obtain compounds that can selectively bind to ATXN3 with abnormally expanded polyQ (MBP-ATXN3-Q68).

MBP-ATXN3-Q28 [14] = target: T12, MBP-ATXN3-Q28; assay: MST affinity with MBP-ATXN3-Q28; type: binding
Method: Protein concentration was 500 nM.

Q25-GFP [15] = assay: MST affinity with Q25-GFP
Method: (§9) The affinity of the compound with full-length HTT and LC3B was verified with micro thermophoresis (MST) using Monolith NT.115 instrument from NanoTemper Technologies. The reaction buffer was 20 mM HEPES, pH 7.4, 150 mM NaCl.

MBP-ATXN3-Q68 [16] = target: T13, MBP-ATXN3-Q68 (Homo sapiens, UniProt P54252, INS305QQQQQQQQQQQQQQQQQQQQQQQQQQQQQQQQQQQQQQQQQQQQQQQQQQQQQQQQQQ); assay: MST affinity with MBP-ATXN3-Q68
Method: as §9

MBP-ATXN3-Q68 [17] = target: T13, MBP-ATXN3-Q68; assay: OI-RD affinity screening with MBP-ATXN3-Q68; type: binding; set-up: His8 with TEV protease cleavage site; made in house; host or cells: Escherichia coli Rosetta(DE3)pLsyS; details: OI-RD difference images
Method: as §8

T4 sequence (P42858 with tags, fused parts or gaps with the stated changes): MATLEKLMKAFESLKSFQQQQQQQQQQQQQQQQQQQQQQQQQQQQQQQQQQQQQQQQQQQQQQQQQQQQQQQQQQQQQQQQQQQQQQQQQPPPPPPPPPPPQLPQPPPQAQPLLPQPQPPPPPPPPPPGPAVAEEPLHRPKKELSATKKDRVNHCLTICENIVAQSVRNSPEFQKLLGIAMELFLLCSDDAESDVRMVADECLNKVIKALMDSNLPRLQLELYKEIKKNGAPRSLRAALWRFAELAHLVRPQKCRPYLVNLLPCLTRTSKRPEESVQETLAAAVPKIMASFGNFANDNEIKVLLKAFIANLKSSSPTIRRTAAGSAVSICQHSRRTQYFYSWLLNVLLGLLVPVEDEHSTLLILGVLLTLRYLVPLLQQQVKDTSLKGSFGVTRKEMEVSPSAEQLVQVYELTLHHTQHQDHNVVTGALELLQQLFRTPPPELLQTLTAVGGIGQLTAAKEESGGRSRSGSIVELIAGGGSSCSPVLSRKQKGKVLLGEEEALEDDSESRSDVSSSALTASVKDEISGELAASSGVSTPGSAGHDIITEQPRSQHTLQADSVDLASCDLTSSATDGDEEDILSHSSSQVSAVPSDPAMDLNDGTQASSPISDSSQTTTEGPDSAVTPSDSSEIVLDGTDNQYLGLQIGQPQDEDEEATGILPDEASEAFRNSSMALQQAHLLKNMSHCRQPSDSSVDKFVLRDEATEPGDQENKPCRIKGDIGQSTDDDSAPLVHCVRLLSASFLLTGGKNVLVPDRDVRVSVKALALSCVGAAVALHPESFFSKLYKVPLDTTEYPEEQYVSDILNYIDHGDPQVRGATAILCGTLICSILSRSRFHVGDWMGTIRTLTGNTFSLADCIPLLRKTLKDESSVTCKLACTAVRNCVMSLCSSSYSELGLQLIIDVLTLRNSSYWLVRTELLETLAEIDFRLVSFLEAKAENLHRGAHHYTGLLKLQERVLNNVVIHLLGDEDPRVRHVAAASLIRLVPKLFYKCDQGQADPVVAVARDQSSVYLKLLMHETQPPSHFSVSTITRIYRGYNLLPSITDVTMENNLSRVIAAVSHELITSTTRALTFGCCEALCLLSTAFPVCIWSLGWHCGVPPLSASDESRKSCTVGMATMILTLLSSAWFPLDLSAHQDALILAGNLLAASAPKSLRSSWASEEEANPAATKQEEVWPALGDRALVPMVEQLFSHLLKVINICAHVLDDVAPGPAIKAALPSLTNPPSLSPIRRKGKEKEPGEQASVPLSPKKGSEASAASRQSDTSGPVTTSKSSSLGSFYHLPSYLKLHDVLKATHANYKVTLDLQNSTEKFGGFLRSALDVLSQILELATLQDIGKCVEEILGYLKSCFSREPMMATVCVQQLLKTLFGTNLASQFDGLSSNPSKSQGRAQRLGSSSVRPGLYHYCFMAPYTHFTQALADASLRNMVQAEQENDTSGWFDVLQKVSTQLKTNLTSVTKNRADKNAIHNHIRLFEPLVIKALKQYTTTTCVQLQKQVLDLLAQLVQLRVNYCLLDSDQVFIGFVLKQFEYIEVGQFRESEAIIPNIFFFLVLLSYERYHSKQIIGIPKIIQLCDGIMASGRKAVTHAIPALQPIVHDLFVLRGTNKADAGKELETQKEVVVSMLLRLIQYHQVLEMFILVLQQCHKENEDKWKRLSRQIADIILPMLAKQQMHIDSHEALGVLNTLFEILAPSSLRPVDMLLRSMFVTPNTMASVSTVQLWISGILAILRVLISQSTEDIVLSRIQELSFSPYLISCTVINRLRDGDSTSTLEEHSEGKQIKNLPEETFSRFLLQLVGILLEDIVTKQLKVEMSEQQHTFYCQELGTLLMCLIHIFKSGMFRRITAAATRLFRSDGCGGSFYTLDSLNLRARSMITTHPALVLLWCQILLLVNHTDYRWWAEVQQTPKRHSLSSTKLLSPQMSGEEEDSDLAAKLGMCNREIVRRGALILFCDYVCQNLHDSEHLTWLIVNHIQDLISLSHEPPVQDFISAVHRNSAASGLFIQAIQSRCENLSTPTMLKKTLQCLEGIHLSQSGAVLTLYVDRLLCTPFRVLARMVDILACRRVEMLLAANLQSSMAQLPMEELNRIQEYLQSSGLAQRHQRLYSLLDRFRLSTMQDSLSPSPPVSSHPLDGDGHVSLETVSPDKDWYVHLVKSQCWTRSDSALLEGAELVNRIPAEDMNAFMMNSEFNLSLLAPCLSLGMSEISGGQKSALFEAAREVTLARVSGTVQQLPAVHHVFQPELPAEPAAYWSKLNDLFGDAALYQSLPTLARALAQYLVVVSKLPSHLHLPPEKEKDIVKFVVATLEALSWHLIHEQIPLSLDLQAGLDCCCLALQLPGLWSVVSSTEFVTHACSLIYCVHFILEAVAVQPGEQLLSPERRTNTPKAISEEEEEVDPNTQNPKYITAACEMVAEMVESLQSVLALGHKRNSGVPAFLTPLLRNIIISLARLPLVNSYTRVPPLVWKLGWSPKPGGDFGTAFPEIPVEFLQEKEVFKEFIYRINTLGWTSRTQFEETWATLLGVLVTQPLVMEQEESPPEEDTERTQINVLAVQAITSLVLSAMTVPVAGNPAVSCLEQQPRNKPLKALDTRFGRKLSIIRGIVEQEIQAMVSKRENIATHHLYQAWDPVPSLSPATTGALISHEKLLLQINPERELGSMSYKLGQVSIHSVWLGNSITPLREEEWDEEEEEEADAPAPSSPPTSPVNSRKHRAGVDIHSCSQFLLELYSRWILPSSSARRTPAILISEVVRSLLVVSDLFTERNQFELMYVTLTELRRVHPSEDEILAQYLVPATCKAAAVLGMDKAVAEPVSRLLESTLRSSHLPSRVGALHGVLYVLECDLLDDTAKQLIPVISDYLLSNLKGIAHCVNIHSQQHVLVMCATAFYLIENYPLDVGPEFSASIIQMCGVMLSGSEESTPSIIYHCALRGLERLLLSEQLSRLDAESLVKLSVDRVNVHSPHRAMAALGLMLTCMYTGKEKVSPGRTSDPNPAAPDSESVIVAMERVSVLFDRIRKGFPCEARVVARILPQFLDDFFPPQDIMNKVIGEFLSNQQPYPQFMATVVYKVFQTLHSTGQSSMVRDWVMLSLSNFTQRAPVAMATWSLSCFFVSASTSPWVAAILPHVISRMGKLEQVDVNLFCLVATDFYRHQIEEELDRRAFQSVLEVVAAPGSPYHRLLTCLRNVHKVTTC
T1 sequence (P42858 with tags, fused parts or gaps, stated change not applied): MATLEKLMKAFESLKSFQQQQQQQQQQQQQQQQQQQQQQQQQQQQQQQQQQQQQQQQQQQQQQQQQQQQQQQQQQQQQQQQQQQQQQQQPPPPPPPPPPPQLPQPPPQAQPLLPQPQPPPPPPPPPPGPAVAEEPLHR
T10 sequence (P54253 with tags, fused parts or gaps with the stated changes): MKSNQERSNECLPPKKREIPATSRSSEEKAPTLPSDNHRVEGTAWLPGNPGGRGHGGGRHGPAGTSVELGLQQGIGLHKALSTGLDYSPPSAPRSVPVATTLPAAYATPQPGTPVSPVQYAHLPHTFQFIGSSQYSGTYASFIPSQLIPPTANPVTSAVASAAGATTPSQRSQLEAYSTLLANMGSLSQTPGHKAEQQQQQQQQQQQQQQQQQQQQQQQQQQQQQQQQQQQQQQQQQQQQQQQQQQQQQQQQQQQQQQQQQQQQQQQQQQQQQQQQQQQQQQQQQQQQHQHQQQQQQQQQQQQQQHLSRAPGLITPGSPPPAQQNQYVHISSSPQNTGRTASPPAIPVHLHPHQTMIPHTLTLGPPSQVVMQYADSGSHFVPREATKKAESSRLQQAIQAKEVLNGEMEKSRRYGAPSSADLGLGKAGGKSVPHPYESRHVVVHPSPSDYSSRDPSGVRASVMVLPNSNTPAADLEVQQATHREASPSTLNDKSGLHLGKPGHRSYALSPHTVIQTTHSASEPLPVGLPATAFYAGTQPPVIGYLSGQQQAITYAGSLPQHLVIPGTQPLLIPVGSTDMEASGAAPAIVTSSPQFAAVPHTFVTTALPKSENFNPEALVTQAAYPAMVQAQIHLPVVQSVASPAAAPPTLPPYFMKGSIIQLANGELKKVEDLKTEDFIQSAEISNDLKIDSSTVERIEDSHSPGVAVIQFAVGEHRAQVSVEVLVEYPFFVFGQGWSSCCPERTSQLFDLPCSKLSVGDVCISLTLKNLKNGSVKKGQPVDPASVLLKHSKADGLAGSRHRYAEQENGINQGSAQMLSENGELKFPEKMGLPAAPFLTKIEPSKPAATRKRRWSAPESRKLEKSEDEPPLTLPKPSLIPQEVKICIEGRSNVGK
T11 sequence (P54253 with tags, fused parts or gaps with the stated changes): as above
T13 sequence (P54252 with tags, fused parts or gaps isoform P54252-4 with the stated changes): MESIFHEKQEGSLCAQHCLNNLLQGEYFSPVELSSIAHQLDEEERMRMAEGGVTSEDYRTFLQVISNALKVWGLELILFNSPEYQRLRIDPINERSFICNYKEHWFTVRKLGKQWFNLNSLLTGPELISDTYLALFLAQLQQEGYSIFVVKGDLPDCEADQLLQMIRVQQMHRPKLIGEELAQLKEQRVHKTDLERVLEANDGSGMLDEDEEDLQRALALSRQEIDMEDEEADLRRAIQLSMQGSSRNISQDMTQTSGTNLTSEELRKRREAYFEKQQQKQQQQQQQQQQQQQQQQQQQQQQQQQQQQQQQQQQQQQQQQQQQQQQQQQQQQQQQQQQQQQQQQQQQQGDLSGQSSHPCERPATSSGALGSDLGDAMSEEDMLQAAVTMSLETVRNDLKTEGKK
T8 sequence (P54252 with tags, fused parts or gaps isoform P54252-1 with the stated changes): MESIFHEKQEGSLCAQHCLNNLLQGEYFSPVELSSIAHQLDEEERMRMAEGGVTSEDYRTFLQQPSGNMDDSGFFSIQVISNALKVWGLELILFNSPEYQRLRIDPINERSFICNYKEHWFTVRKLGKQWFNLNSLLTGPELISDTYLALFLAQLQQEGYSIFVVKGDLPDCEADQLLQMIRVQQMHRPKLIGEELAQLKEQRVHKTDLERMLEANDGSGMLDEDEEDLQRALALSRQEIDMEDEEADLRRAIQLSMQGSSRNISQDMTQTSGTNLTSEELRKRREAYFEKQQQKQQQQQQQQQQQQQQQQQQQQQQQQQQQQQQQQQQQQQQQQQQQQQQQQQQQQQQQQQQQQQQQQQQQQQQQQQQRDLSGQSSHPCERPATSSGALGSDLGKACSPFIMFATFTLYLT

Cc1ccc(C(=O)N(CCCN)[C@@H](c2nc3cc(Cl)ccc3c(=O)n2Cc2ccccc2)C(C)C)cc1 [compound 2, ispinesib]
pKd (HTTexon1-Q72-MBP): 7.53 | binding to HTTexon1-Q72 (HTTexon1-Q72-MBP; OI-RD difference images): can bind | Koff (HTTexon1-Q72-MBP; OI-RD, HTTexon1-Q72): 0.000104 s⁻¹ | Kon (HTTexon1-Q72-MBP; OI-RD, HTTexon1-Q72): 0.000213 min/nM | binding to HTTexon1-Q25 (HTTexon1-Q25-MBP): do not bind | pKd (LC3B [1]): 6.62 | binding to LC3B (LC3B [1]; OI-RD difference images): can bind | Koff (LC3B [1]; OI-RD, LC3B): 9.77e-05 s⁻¹ | Kon (LC3B [1]; OI-RD, LC3B): 2.46e-05 min/nM | pKd [2]: 6.49 | Koff ([2]; OI-RD, flHTT-Q73): 0.000345 s⁻¹ | Kon ([2]; OI-RD, flHTT-Q73): 6.43e-05 min/nM | pKd (flHTT-Q73): 6.89 | pKd (LC3B [3]): 5.51 | concentration range in which the effect of selectively reducing mHTT levels was observed (mHTT [4]): 30 to 100 nM | preferred concentration for selectively reducing mHTT levels (mHTT [4]): 100 nM | wtHTT levels (wtHTT): did not reduce wtHTT levels | mHTT levels (mHTT [5]; 2B7/MW1): Decreased mHTT levels were observed | mHTT levels (mHTT [5]; presence of the autophagy inhibitor NH4Cl): this effect was not observed | mutant ATXN3 protein level [6]: A decrease in mutant ATXN3 protein level was observed | wild-type ATXN3 protein level [7]: no decrease in wild-type ATXN3 protein level was observed | binding to His-ATXN1-Q92 (His-ATXN1-Q92): can bind | level of mutant ATXN1 protein (His-ATXN1-Q92) [8]: Decreased levels of mutant ATXN1 were observed

O=C1Nc2ccc(Br)cc2/C1=C/c1cc(O)c(O)c(Br)c1 [compound 3]
mHTT level in cortices (mHTT [9]): significantly reduced mHTT level | binding to Q25-GFP (Q25-GFP [10]): did not bind | binding to GFP (GFP): did not bind | binding affinity to proteins with 38 or more glutamine repeats [11]: showed certain binding affinity | level of proteins containing expanded polyglutamine in cells (polyQ-GFP) [12]: can selectively reduce the level | binding to MBP-ATXN3-Q28 (MBP-ATXN3-Q28 [13]): did not bind | binding affinity with normal ATXN3 protein (MBP-ATXN3-Q28) (MBP-ATXN3-Q28 [14]): no binding affinity | mutant ATXN3 protein level [6]: A decrease in mutant ATXN3 protein level was observed | wild-type ATXN3 protein level [7]: no decrease in wild-type ATXN3 protein level was observed | binding to His-ATXN1-Q92 (His-ATXN1-Q92): can bind | level of mutant ATXN1 protein (His-ATXN1-Q92) [8]: Decreased levels of mutant ATXN1 were observed | binding affinity to Q25-GFP (Q25-GFP [15]): no binding affinity | pKd (MBP-ATXN3-Q68 [16]): 5.99 | binding to MBP-ATXN3-Q68 (MBP-ATXN3-Q68 [17]): binded
